Laboratory results: US7744867B2, “PTPase inhibitors and method of using same” (The Cleveland Clinic Foundation, priority 2001, dated 2010)

Experiments:
[1] = test system: DU145 cells (Prostate cancer); test: Growth inhibition of human tumor cell lines (MTT); format: cell-based
Excerpt: (§1) FIG. 9 illustrates growth inhibition of human cell lines of non-hematopoietic malignancies by sodium stibogluconate and/or IFNα. Percentage of growth inhibition of WM9 (A), DU145 (B), MDA231 (C) and WiT49-N1 (D) in the absence or presence of various amounts of sodium stibogluconate and/or IFNα (1,000 u/ml) in day 6 cultures as measured by MTT assays.

[2] = test system: MDA231 cells (Breast cancer); test: Growth inhibition of human tumor cell lines (MTT); format: cell-based
Excerpt: as §1

[3] = biological target: T1, intracellular Flag-PRL-1 (Homo sapiens, UniProt Q93096); test: PTPase activity of anti-Flag immunocomplexes from NIH3T3 transfectants; format: cell-based; conditions: treated 5 min
T1 construct: expressed in transfected cells; host or cells: NIH3T3
T1 sequence (Q93096 whole entry): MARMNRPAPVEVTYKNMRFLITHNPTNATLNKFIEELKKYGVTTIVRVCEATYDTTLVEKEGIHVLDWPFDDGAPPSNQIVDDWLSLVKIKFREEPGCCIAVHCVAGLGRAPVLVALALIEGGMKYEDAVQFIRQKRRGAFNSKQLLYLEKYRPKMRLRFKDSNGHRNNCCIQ
Procedure: (§2) An expression construct of Flag-tagged PRL-1 or control vector was transfected into NIH3T3 cells which were then treated without or with sodium stibogluconate and used for immunoprecipitation assays with a monoclonal anti-Flag antibody. The immunocomplexes were analyzed by SDS-PAGE/Western blotting and PTPase assays. A Flag-tagged protein with a molecular weight approximately 22 kDa as expected for Flag-PRL-1 was detected in the immunocomplexes from untreated or sodium stibogluconate -treated Flag-PRL-1 transfectants but not in those from the control cells (FIG. 6A).
(§3) Glucatime inactivates intracellular PRL phosphatases. NIH3T3 stable transfectants of Flag-tagged PRL-1 (A), PRL-2 (B) and PRL-3 (C) were untreated or treated with glucatime for 5 minutes and then washed to remove cell free drug. The Flag-tagged PRLs were immunoprecipitated from the cells using a monoclonal anti-Flag antibody. The amounts of Flag-tagged PRLs in the immunocomplexes were quantified by SDS-PAGE/Western blotting with the anti-Flag antibody (the top panel). Activities of the immunocomplexes in dephosphorylating a synthetic phosphotyrosine peptide were determined by in vitro PTPase assays (the low panel).

[4] = biological target: T2, intracellular Flag-PRL-3 (Homo sapiens, UniProt O75365); test: as above; format: cell-based; conditions: treated 5 min
T2 construct: expressed in transfected cells; host or cells: NIH3T3
T2 sequence (O75365 whole entry): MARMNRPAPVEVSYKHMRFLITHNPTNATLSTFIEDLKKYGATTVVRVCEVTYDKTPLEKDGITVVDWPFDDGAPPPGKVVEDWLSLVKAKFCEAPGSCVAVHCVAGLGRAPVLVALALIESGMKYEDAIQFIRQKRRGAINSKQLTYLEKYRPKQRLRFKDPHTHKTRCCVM
Procedure: as §2, §3

[5] = biological target: T3, recombinant PRL-3 (Homo sapiens, UniProt O75365); test: In vitro PTPase assay with recombinant PRL (peptide or DiFMUP substrate); format: biochemical
T3 construct: made in house; host or cells: E. coli DH5α
T3 sequence (O75365 whole entry): as above
Procedure: In vitro PTPase activities were measured using the commercial protein tyrosine phosphatase assay kit (UBI) following established procedure. […] 100 μl of Malachite Green solution was added and incubated for 5 minutes, and the absorbance at 660 nm was measured after 5 minutes.
Recombinant GST fusion proteins of human PRL-1, 2 and 3 phosphatases were purified with glutathione beads from DH5α bacteria transformed by pGEX vectors containing cDNA fragments encoding the human PRLs which were generated by RT-PCR from H9 cells and confirmed by sequence analysis. Activities of the purified recombinant PRL proteins in dephosphorylating DiFMUP in the absence or presence of various inhibitors were measured following established procedure.
To assess whether sodium stibogluconate is an inhibitor of oncogenic PRL phosphatases, its effects on the PTPase activity of recombinant PRLs were evaluated by in vitro PTPase assays.

[6] = test system: WM9 cells (Melanoma); test: Growth inhibition of human tumor cell lines (MTT); format: cell-based
Excerpt: as §1
FIG. 10 illustrates sodium stibogluconate augments both IFNα- and IFNβ-induced growth inhibition of WM9 cells. Percentage of growth inhibition of WM9 cells in the absence or presence of various amounts of sodium stibogluconate, IFNα and IFNβ in day 6 cultures as measured by MTT assays. The data illustrates that sodium seems to interact with IFNα and IFNβ in a synergistic manner in growth inhibition of WM9 cells. Data from MTT antiproliferative assays was expressed as percent control growth (PCG) of treated cells, compared to untreated cells (100%). Median effect analysis (inset graphs), similar to isobol analysis, defined drug interaction in the IFNα+sodium stibogluconate and the IFNβ+sodium stibogluconate combinations as synergistic at all doses tested, characterized by a combination index (CI) of less than 1. Additivity is indicated by CI=1, and antagonism occurs when CI>1. Fraction affected (fa)=(100−PCG)/100.
Drug Interaction Analysis. Median effect analysis, which provides the most general form of studying the interactions between drugs, was utilized to analyze the interaction between sodium stibogluconate and IFNα or IFNβ. Since details regarding the mode of IFN and sodium stibogluconate interaction are not fully understood, and whether or not they act in a mutually exclusive fashion, we chose the most general analysis available. Dose response curves were generated for each drug alone, and also the combinations. Median effect plots were generated, which determined m and Dm values for IFN alone, sodium stibogluconate alone, and the combination. The combination index (CI) was determined and plotted vs. fraction affected (FA). Data were analyzed in both modes, mutually exclusive and mutually nonexclusive. […]

[7] = test system: DS cells (lymphoma); test: Growth inhibition of human tumor cell lines (MTT); format: cell-based; conditions: day 3; IFNα 1,000 u/ml
Procedure: FIG. 8 illustrates growth inhibition of human cell lines of hematopoietic malignancies by sodium stibogluconate and/or IFNα: A and B. Growth of DS and DR cells cultured in the absence or presence of various amounts of sodium stibogluconate and/or IFNα (1,000 u/ml) for 3 days was measured by MTT assays; C. Percentage of growth inhibition of DR cells calculated from data in B; D. Percentage of growth inhibition of DR cells by IFNα (1,000 u/ml) and various amounts of sodium stibogluconate in day 6 cultures measured by MTT assays; E. Percentage of growth inhibition of U266 cells by IFNα (1,000 u/ml) and various amounts of sodium stibogluconate in day 6 cultures as measured by MTT assays.

Molecule	cell killing as a single agent ([1]; 50 μg/ml and 100 μg/ml, day 6 culture)	cell killing as a single agent ([2]; MDA231, 50 μg/ml and 100 μg/ml, day 6 culture)	PTPase activity of Flag-PRL-1 immunocomplexes from treated transfectants [3]	PTPase activity of Flag-PRL-3 immunocomplexes from treated transfectants [4]	inhibition of PRL-3 after prolonged pre-incubation ([5]; pre-incubation 30 or 60 minutes, 10 mg/ml)	reversibility of PRL-3 inactivation ([5]; washing process)	cell killing as a single agent ([6]; WM9, 50 μg/ml and 100 μg/ml, day 6 culture)	activity against DS cells [7]	% of growth inhibition by day 6 (±s.d.) ([1]; SS 12.5 μg/ml, IFNα 1,000 u/ml, alone or combined)	% of growth inhibition by day 6 (±s.d.) ([2]; MDA231, SS 12.5 μg/ml, IFNα 1,000 u/ml, alone or combined)	growth inhibition of MDA231 breast cancer cells ([2]; drug at 25 μg/ml, agents individually or in combination)	% of growth inhibition by day 6 (±s.d.) ([6]; WM9, SS 12.5 μg/ml, IFNα 1,000 u/ml, alone or combined)	growth inhibition of WM-9 melanoma cells ([6]; drug at 25-100 μg/ml, agents individually or in combination)
O.O.O.O.O.O.O.O.O.O=C([O-])[C@@H]1[O][Sb]2([O-])([O][Sb]34([OH])[O][C@H]([C@H](O)CO)[C@H]([O]3)[C@H](C(=O)[O-])[O]4)[O][C@H]([C@H](O)CO)[C@@H]1[O]2.[Na+].[Na+].[Na+] [sodium stibogluconate]	killed all cells	killed all cells	little PTPase activities	lack of PTPase activity	nearly complete inactivation	not relieved	killed all cells	modest activity	–	–	–	–	–
IFNα	–	–	–	–	–	–	–	almost completely eliminated	70 (5) %	79 (2) %	79%	58 (2) %	58%
